Test results published in PubChem BioAssay (NCI).
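Where inhibition never reached the appropriate level, the endpoint shown equals the highest concentration tested. Otherwise, values were interpolated linearly from a five-concentration, 48-hour dose response in 96-well plates. Abbreviation: GI50, concentration required for 50% inhibition of growth. TGI denotes the concentration required for complete inhibition of growth.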

Columns and labels:
Test in all cases: NCI-60 cell line screen, 48 h; in the data active = GI50 below about 0.43 µM; inactive = the rest
[1] = test system: OVCAR-5 ovarian
[2] = test system: EKVX NSCLC
[3] = test system: SW-620 colon
[4] = test system: SNB-19 CNS
[5] = test system: NCI-H23 lung
[6] = test system: UACC-257 melanoma
[7] = test system: ACHN renal
[8] = test system: HOP-62 NSCLC
[9] = test system: HOP-92 NSCLC
[10] = test system: M14 melanoma
[11] = test system: COLO 205 colon
[12] = test system: HCT-15 colon
[13] = test system: HL-60(TB) leukemia
[14] = test system: HS 578T breast
[15] = test system: UACC-62 melanoma
[16] = test system: NCI-H522 lung
[17] = test system: NCI/ADR-RES ovarian
[18] = test system: OVCAR-8 ovarian
[19] = test system: U251 CNS
[20] = test system: CAKI-1 renal
[21] = test system: NCI-H226 lung
[22] = test system: HT29 colon
[23] = test system: MCF7 breast
[24] = test system: CCRF-CEM leukemia
[25] = test system: MOLT-4 leukemia
[26] = test system: A498 renal
[27] = test system: SF-295 CNS
[28] = test system: A549 NSCLC
[29] = test system: HCC-2998 colon
[30] = test system: T-47D breast
[31] = test system: DU-145 prostate
[32] = test system: SF-268 CNS
[33] = test system: IGROV1 ovarian
[34] = test system: SF-539 CNS
[35] = test system: MALME-3M melanoma
[36] = test system: SN12C renal
[37] = test system: SNB-75 CNS
[38] = test system: MDA-MB-435
[39] = test system: KM12 colon
[40] = test system: UO-31 renal
[41] = test system: SK-MEL-2 melanoma
[42] = test system: SK-OV-3 ovarian
[43] = test system: LOX IMVI melanoma
[44] = test system: RXF 393 renal
[45] = test system: BT-549 breast
[46] = test system: NCI-H460 lung
[47] = test system: 786-0 renal
[48] = test system: TK-10 renal
[49] = test system: OVCAR-4 ovarian
[50] = test system: OVCAR-3 ovarian
[51] = test system: SK-MEL-28 melanoma
[52] = test system: K-562 leukemia
[53] = test system: HCT-116 colon
[54] = test system: MDA-MB-231 breast
[55] = test system: PC-3 prostate
[56] = test system: SK-MEL-5 melanoma

C#CC[C@@H]1C[C@]2(C)[C@H]3CC=C4[C@H]5[C@@H](C)[C@H](C)CC[C@]5(C(=O)NCCCN5CCN(CCCN)CC5)CC[C@@]4(C)[C@]3(C)CC[C@H]2C(C)(C)[C@H]1OC(C)=O
inactive: GI50 [1] 1.61 µM
3.02 µM: TGI [1]

Clc1nc(Cl)c2c3c(sc2n1)CCCC3
> 30.4 µM: TGI [50]
> 59.7 µM: TGI [41]
> 28.8 µM: TGI [21]
> 100 µM: TGI [2] | TGI [3] | TGI [4] | TGI [5] | TGI [6] | TGI [7] | TGI [8] | TGI [9] | TGI [10] | TGI [12] | TGI [13] | TGI [14] | TGI [15] | TGI [17] | TGI [18] | TGI [19] | TGI [20] | TGI [22] | TGI [23] | TGI [24] | TGI [25] | TGI [26] | TGI [27] | TGI [28] | TGI [29] | TGI [30] | TGI [31] | TGI [32] | TGI [33] | TGI [34] | TGI [35] | TGI [36] | TGI [37] | TGI [38] | TGI [39] | TGI [40] | TGI [42] | TGI [43] | TGI [44] | TGI [45] | TGI [46] | TGI [47] | TGI [48] | TGI [49] | TGI [51] | TGI [1] | TGI [52] | TGI [53]
> 26 µM: TGI [16]
inactive: GI50 [2] > 100 µM | GI50 [3] 5.37 µM | GI50 [4] > 100 µM | GI50 [5] 5.92 µM | GI50 [6] > 26.1 µM | GI50 [7] 5.27 µM | GI50 [8] > 100 µM | GI50 [9] 3.88 µM | GI50 [10] 4.49 µM | GI50 [11] 2.75 µM | GI50 [12] 4.07 µM | GI50 [13] > 27.4 µM | GI50 [15] > 100 µM | GI50 [16] 1.64 µM | GI50 [17] 5.29 µM | GI50 [18] 4.38 µM | GI50 [19] > 20 µM | GI50 [20] > 100 µM | GI50 [21] 2.54 µM | GI50 [22] 3.67 µM | GI50 [23] 3.56 µM | GI50 [24] 17.1 µM | GI50 [25] 3.61 µM | GI50 [26] > 100 µM | GI50 [27] > 100 µM | GI50 [28] > 24.4 µM | GI50 [29] > 28.9 µM | GI50 [30] > 22.1 µM | GI50 [31] 3.71 µM | GI50 [32] 4.37 µM | GI50 [33] 3.85 µM | GI50 [34] > 100 µM | GI50 [35] > 100 µM | GI50 [36] 3.26 µM | GI50 [37] > 100 µM | GI50 [38] 3.65 µM | GI50 [39] > 100 µM | GI50 [42] > 100 µM | GI50 [43] 1.78 µM | GI50 [44] 4.06 µM | GI50 [45] 3.63 µM | GI50 [46] > 100 µM | GI50 [47] 5.17 µM | GI50 [48] 5.34 µM | GI50 [49] 5.5 µM | GI50 [50] 3.3 µM | GI50 [51] 6.97 µM | GI50 [1] > 100 µM | GI50 [52] 3.77 µM | GI50 [53] 3.95 µM
> 22.6 µM: TGI [11]

NCCCCCCCCCCCn1c2c(c3ccccc3c1=O)C(=O)c1ccccc1-2
35 µM: TGI [15]
15.2 µM: TGI [54]
25.7 µM: TGI [10]
8.11 µM: TGI [7]
36.3 µM: TGI [26]
37.8 µM: TGI [39]
3.61 µM: TGI [36]
7.68 µM: TGI [37]
41.4 µM: TGI [45]
26.6 µM: TGI [30]
19.4 µM: TGI [12]
3.93 µM: TGI [25]
29.7 µM: TGI [46]
54.3 µM: TGI [21]
4.58 µM: TGI [52]
4.83 µM: TGI [8]
29.5 µM: TGI [56]
10.4 µM: TGI [16]
63.5 µM: TGI [20]
49.1 µM: TGI [32]
17.6 µM: TGI [17]
27.1 µM: TGI [19]
32 µM: TGI [5]
74.7 µM: TGI [28]
5.96 µM: TGI [50]
63.7 µM: TGI [6]
9.01 µM: TGI [1]
21.1 µM: TGI [43]
4.07 µM: TGI [40]
38.9 µM: TGI [4]
34.5 µM: TGI [42]
3.76 µM: TGI [3]
8.63 µM: TGI [49]
9.72 µM: TGI [29]
14.8 µM: TGI [31]
46.9 µM: TGI [47]
20.4 µM: TGI [13]
52.6 µM: TGI [14]
37.9 µM: TGI [23]
inactive: GI50 [2] 22.5 µM | GI50 [3] 1.96 µM | GI50 [4] 6.77 µM | GI50 [5] 11.6 µM | GI50 [6] 27.7 µM | GI50 [7] 3.11 µM | GI50 [8] 2.19 µM | GI50 [9] 2.65 µM | GI50 [10] 5.92 µM | GI50 [11] 2.24 µM | GI50 [12] 5.58 µM | GI50 [13] 6.28 µM | GI50 [14] 22.4 µM | GI50 [15] 16.9 µM | GI50 [16] 3.39 µM | GI50 [17] 3.2 µM | GI50 [19] 10.2 µM | GI50 [20] 8.62 µM | GI50 [54] 3.75 µM | GI50 [21] 25.2 µM | GI50 [23] 8.63 µM | GI50 [25] 1.97 µM | GI50 [26] 12.4 µM | GI50 [55] 2.26 µM | GI50 [27] 2.7 µM | GI50 [28] 20 µM | GI50 [29] 2.76 µM | GI50 [30] 4.42 µM | GI50 [31] 4.6 µM | GI50 [32] 6.05 µM | GI50 [34] 20.6 µM | GI50 [35] 16.7 µM | GI50 [36] 1.98 µM | GI50 [37] 2.95 µM | GI50 [38] 11 µM | GI50 [39] 3.95 µM | GI50 [56] 10.3 µM | GI50 [40] 2.01 µM | GI50 [42] 14.3 µM | GI50 [43] 5 µM | GI50 [44] 24.3 µM | GI50 [45] 20.3 µM | GI50 [46] 4.26 µM | GI50 [47] 19.9 µM | GI50 [48] 3.14 µM | GI50 [49] 2.86 µM | GI50 [50] 2.1 µM | GI50 [51] 2.27 µM | GI50 [1] 2.48 µM | GI50 [52] 2.31 µM
7.9 µM: TGI [27]
7.05 µM: TGI [9]
53.6 µM: TGI [35]
45.7 µM: TGI [2]
4.82 µM: TGI [51]
82.3 µM: TGI [44]
5.45 µM: TGI [11]
40.2 µM: TGI [34]
47.9 µM: TGI [38]
8.97 µM: TGI [48]
7.12 µM: TGI [55]
